From patent publication US20160075653A1, “NEMATICIDAL N-(PHENYLCYCLOALKYL)CARBOXAMIDES AND N-(PHENYLCYCLOALKYL)THIOCARBOXAMIDES” (BAYER CROPSCIENCE AKTIENGESELLSCHAFT, priority 2013, published 2016) come the findings set out here.

Structures are written as SMILES.

One data set in a line: Measurement of log P values by HPLC on reversed phase columns (methods [a] pH 2.3, [b] pH 2.7, [c] pH 7.8). To be noted: HPLC on reversed phase column, method [b], pH 2.7. It is filed as physicochemical. The procedure, abridged: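 Determined per EEC Directive 79/831 Annex V.A8 by reversed-phase HPLC, 10-95% acetonitrile gradient: [a] pH 2.3, 0.1% phosphoric acid; [b] LC-MS, pH 2.7, 0.1% formic acid; [c] LC-MS, pH 7.8, 0.001 molar ammonium hydrogen carbonate. Calibrated with C3-C16 alkan-2-ones by retention-time interpolation.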
Consider `O=C(N[C@@H]1CC[C@@H]1c1ccc(Cl)cc1C(F)(F)F)c1ccc(Cl)cc1` (relative stereo) [Example 707], for which the logP is 4.04^[b].
Still for that read-out and setting: in the case of `O=C(N[C@@H]1CC[C@@H]1c1ccc(Cl)cc1C(F)(F)F)c1ccccc1I` (relative stereo) [Example 678] it was 3.90^[b]; in that of `O=C(N[C@@H]1CC[C@@H]1c1cccc(F)c1C(F)(F)F)c1sccc1I` (relative stereo) [Example 628], 3.65^[b]; in that of `O=C(NC1CCC1c1ccccc1C(F)(F)F)c1nccnc1C(F)(F)F` (stereo not shown) [Example 687], 3.31^[b].
Still for that read-out and setting: in the case of `CC1=C(C(=O)N[C@@H]2C[C@@H]2c2ccc(Cl)cc2Cl)SCCO1` (relative stereo) [Example 615] it was 3.06^[b]; in that of `O=C(N[C@@H]1CC[C@H]1c1ccc(Cl)cc1C(F)(F)F)c1ccccc1I` (relative stereo) [Example 677], 4.20^[b].
Consider `O=C(N[C@@H]1CC[C@@H]1c1ccccc1C(F)(F)F)c1sccc1I` (relative stereo) [Example 636], for which the logP is 3.83^[b].
Still for that read-out and setting: next, `O=C(N[C@@H]1CC[C@H]1c1ccc(Cl)cc1C(F)(F)F)c1ccccc1C(F)(F)F` (relative stereo) [Example 703]: 4.10^[b].

Still in this data set, the particulars now being: HPLC on reversed phase column, method [c], pH 7.8.
Turning to `O=C(NC1CCC1c1ccccc1C(F)(F)F)c1nccnc1C(F)(F)F` (stereo not shown) [Example 687], the logP was 3.25^[c];.
Same read-out and setting: in the case of `CC1=C(C(=O)N[C@@H]2C[C@@H]2c2ccc(Cl)cc2Cl)SCCO1` (relative stereo) [Example 615] it was 3.01^[c];.

Still in this data set, the particulars now being: HPLC on reversed phase columns, method [b], pH 2.7.
Take `O=C(N[C@@H]1CCC[C@@H]1c1ccc(F)c(F)c1)c1ccccc1OC(F)F` (relative stereo) [Example 119]: the logP was 3.51^[b].
On the same count and under the same terms, in the case of `Cc1nc(C(F)(F)F)c(C(=O)NC2CCC2c2ccc(Cl)cc2C(F)(F)F)s1` (stereo not shown) [Example 731] it was 3.75^[b]; in that of `O=C(NC1CC1c1ccc(Cl)cc1)c1ccc(Cl)nc1` (stereo not shown) [Example 31], 3.53^[b]; in that of `Cc1nc(C(F)(F)F)c(C(=O)NC2CC2c2ccc(F)cc2)s1` (stereo not shown) [Example 26], 3.87^[b].
Take `O=C(NC1CCC1c1c(Cl)cccc1Cl)c1cccc(Cl)c1` (stereo not shown) [Example 729]: the logP is 3.87^[b].
The same measure, in the same setting: in the case of `Cn1cc(C(=O)N[C@@H]2CCC[C@@H]2c2ccc(F)c(F)c2)c(I)n1` (relative stereo) [Example 99] it was 2.75^[b]; in that of `Cc1nn(C)c(C)c1C(=O)NC1CC1c1ccc(F)cc1` (stereo not shown) [Example 15], 2.84^[b].
For the compound `COc1c(C(=O)N[C@@H]2CCC[C@@H]2c2ccc(F)c(F)c2)c(C)nn1C` (relative stereo) [Example 116], the logP is 2.59^[b].
Still for that read-out and setting: next, `O=C(N[C@@H]1CCC[C@@H]1c1ccc(F)c(F)c1)C1=C(C(F)(F)F)OCCS1` (relative stereo) [Example 57]: 3.19^[b].
With `O=C(N[C@@H]1CCC[C@@H]1c1ccc(F)c(F)c1)c1ccccc1Br` (relative stereo) [Example 94], the logP is 3.35^[b].
Same read-out and setting: next, `CC(C)Oc1nn(C)cc1C(=O)N[C@@H]1CCC[C@@H]1c1ccc(F)c(F)c1` (relative stereo) [Example 118]: 3.27^[b].
On to `O=C(NC1CCC1c1c(Cl)cccc1Cl)c1cccnc1Cl` (stereo not shown) [Example 725], for which the logP was 2.79^[b].
On to `O=C(NC1CC1c1ccc(Br)cc1)c1cccnc1Cl` (stereo not shown) [Example 35], for which the logP is 2.34^[b].
On the same count and under the same terms, next, `O=C(N[C@@H]1CCC[C@H]1c1ccc(F)c(F)c1)c1cccnc1F` (relative stereo) [Example 106]: 2.80^[b].

The same data set, now with this note: HPLC reversed phase, method [b] (pH 2.7).
For the compound `O=C(NC1CCCC1c1ccccc1C(F)(F)F)c1cccnc1C(F)(F)F` (stereo not shown) [Example 309], the logP was 3.22^[b].
Same read-out and setting: in the case of `CC(C)Oc1ccc([C@H]2CCC[C@H]2NC(=O)c2nccnc2Cl)cc1` (relative stereo) [Example 335] it was 3.23^[b]; in that of `Cc1nn(C)cc1C(=O)NC1CCCCC1c1ccc(Cl)cc1` (stereo not shown) [Example 367], 2.49^[b]; in that of `O=C(NC1CCCC1c1c(F)cccc1F)c1cccnc1C(F)(F)F` (stereo not shown) [Example 362], 2.86^[b].
As for `Cc1nc(C(F)(F)F)c(C(=O)N[C@@H]2CC[C@@H]2c2ccc(F)cc2C(F)(F)F)s1` (relative stereo) [Example 531], the logP is 3.35^[b].
Same read-out and setting: in the case of `O=C(NC1CCCCC1c1ccccc1Br)c1ccccc1I` (stereo not shown) [Example 406] it was 4.12^[b]; in that of `O=C(N[C@@H]1CC[C@H]1c1ccc(Cl)cc1Cl)c1ncc(C(F)(F)F)cc1Cl` (relative stereo) [Example 258], 4.53^[b]; in that of `O=C(NC1CCCC1c1ccccc1C(F)(F)F)c1c(F)cccc1F` (stereo not shown) [Example 320], 3.38^[b].
Consider `O=C(NC1CCCCC1c1ccc(Cl)cc1)c1ccccc1I` (stereo not shown) [Example 372], for which the logP was 3.84^[b].
Still for that read-out and setting: next, `O=C(NC1CCCC1c1ccc(Cl)cc1Cl)c1c(F)cccc1F` (stereo not shown) [Example 350]: 3.73^[b].
For `O=C(NC1CCCCC1c1ccc(Cl)cc1Cl)c1ccccc1C(F)(F)F` (stereo not shown) [Example 412], the logP was 4.49^[b].
For `O=C(N[C@@H]1CCC[C@@H]1c1ccccc1F)c1c(F)cccc1F` (relative stereo) [Example 328], the logP was 2.95^[b].
Regarding `O=C(NC1CCCC1c1ccccc1Cl)c1cccnc1C(F)(F)F` (stereo not shown) [Example 361], the logP is 3.01^[b].
On the same count and under the same terms, in the case of `O=C(NC1CCC1c1ccccc1C(F)(F)F)c1ccccc1I` (stereo not shown) [Example 428] it was 3.42^[b]; in that of `O=C(N[C@@H]1CC[C@@H]1c1ccccc1Cl)c1sccc1I` (relative stereo) [Compound 546], 3.72^[b].
Same read-out and setting: in the case of `O=C(NC1CCCCC1c1ccc(Cl)cc1)c1ccccc1C(F)(F)F` (stereo not shown) [Example 364] it was 3.84^[b].
For the compound `O=C(NC1CCC1c1ccc(F)cc1C(F)(F)F)c1ncccc1Cl` (stereo not shown) [Compound 478], the logP is 3.39^[b].
Still for that read-out and setting: in the case of `O=C(NC1CCC1c1ccccc1C(F)(F)F)c1ccc(Cl)cc1` (stereo not shown) [Example 429] it was 3.56^[b]; in that of `Cc1nn(C)cc1C(=O)NC1CCCC1c1c(F)cccc1F` (stereo not shown) [Example 324], 2.13^[b].
Still for that read-out and setting: next, `O=C(NC1CCCCC1c1ccccc1Cl)c1ccccc1C(F)(F)F` (stereo not shown) [Example 383]: 4.01^[b]; `O=C(N[C@@H]1CC[C@H]1c1cccc(F)c1C(F)(F)F)c1ccccc1I` (relative stereo) [Example 590]: 3.68^[b].
On the same count and under the same terms, in the case of `O=C(N[C@@H]1CCC[C@@H]1c1ccc(C(F)(F)F)cc1)c1ccccc1C(F)(F)F` (relative stereo) [Example 302] it was 3.83^[b]; in that of `O=C(NC1CCCCC1c1c(F)cccc1F)c1cccnc1Cl` (stereo not shown) [Example 397], 2.99^[b].
Regarding `O=C(N[C@@H]1C[C@@H]1c1ccc(Cl)cc1)c1c(F)cccc1F` (relative stereo) [Example 268], the logP was 2.64^[b].
Same read-out and setting: next, `O=C(N[C@@H]1CC[C@H]1c1ccc(F)cc1C(F)(F)F)c1cccnc1` (relative stereo) [Example 526]: 2.41^[b]; `O=C(N[C@@H]1CC[C@H]1c1ccc(F)cc1C(F)(F)F)c1ccc(Cl)cc1Cl` (relative stereo) [Example 510]: 4.08^[b].
Consider `O=C(NC1CCC1c1c(F)cccc1F)c1c(F)cccc1F` (stereo not shown) [Example 439], for which the logP was 2.83^[b].
As for `O=C(NC1CCCCC1c1ccc(Cl)cc1)c1c(F)cccc1F` (stereo not shown) [Example 369], the logP was 3.50^[b].

The data set is the same for the next values; noted with them: HPLC reversed phase, method [c] pH 7.8.
On to `CC(C)Oc1ccc([C@H]2CCC[C@H]2NC(=O)c2nccnc2Cl)cc1` (relative stereo) [Example 335], for which the logP is 3.21^[c];.
On the same count and under the same terms, in the case of `O=C(N[C@@H]1CCC[C@@H]1c1ccccc1F)c1c(F)cccc1F` (relative stereo) [Example 328] it was 2.90^[c];; in that of `O=C(N[C@@H]1CCC[C@@H]1c1ccc(C(F)(F)F)cc1)c1ccccc1C(F)(F)F` (relative stereo) [Example 302], 3.79^[c];; in that of `O=C(N[C@@H]1C[C@@H]1c1ccc(Cl)cc1)c1c(F)cccc1F` (relative stereo) [Example 268], 2.59^[c];.

The same data set, now with this note: method [b], HPLC reversed phase, pH 2.7.
In the case of `O=C(N[C@@H]1CCC[C@H]1c1ccc(F)c(F)c1)c1ccsc1I` (relative stereo) [Example 129], the logP was 3.58^[b].
Turning to `Cn1cc(C(=O)N(C2CC2)C2CCCCC2c2ccccc2)c(C(F)(F)F)c1` (stereo not shown) [Example 140], the logP is 3.90^[b].
For the compound `Cc1cc(C(=O)N(C2CC2)C2CCCCC2c2ccc(Cl)cc2Cl)c(C)o1` (stereo not shown) [Example 163], the logP was 5.85^[b].
Take `O=C(NC1CC1c1ccc(Cl)cc1)c1ccccc1Cl` (stereo not shown) [Example 198]: the logP is 3.09^[b].
On to `Cc1nn(C)c(F)c1C(=O)N(C1CC1)C1CCCC1c1ccccc1Cl` (stereo not shown) [Example 164], for which the logP is 3.71^[b].
With `Cc1nn(C)c(F)c1C(=O)N(C1CC1)C1CCCCC1c1ccccc1` (stereo not shown) [Example 139], the logP was 3.53^[b].
Same read-out and setting: next, `O=C(NC1CC1c1ccc(Cl)cc1Cl)c1ccccc1Br` (stereo not shown) [Example 207]: 3.58^[b]; `Fc1ccc(C2CCCC2NC(=S)c2sccc2C(F)(F)F)cc1F` (stereo not shown) [Example 149]: 4.59^[b].
On to `O=C(NC1CC1c1ccc(Cl)cc1Cl)c1ccccc1I` (stereo not shown) [Example 208], for which the logP is 3.74^[b].
`Cc1nc(C(F)F)c(C(=O)N(C2CC2)C2CCCCC2c2ccccc2)s1` (stereo not shown) [Example 141]: the logP is 4.18^[b].

The same data set, now with this note: method [c], HPLC reversed phase, pH 7.8.
`O=C(NC1CC1c1ccc(Cl)cc1)c1ccccc1Cl` (stereo not shown) [Example 198]: the logP is 3.02^[c];.
The same measure, in the same setting: next, `O=C(NC1CC1c1ccc(Cl)cc1Cl)c1ccccc1Br` (stereo not shown) [Example 207]: 3.52^[c];; `O=C(NC1CC1c1ccc(Cl)cc1Cl)c1ccccc1I` (stereo not shown) [Example 208]: 3.64^[c];.

Still in this data set, the particulars now being: reversed phase HPLC columns, HPLC-MS, method letter not given; read-out: log P.
In the case of `O=C(N[C@H]1CCC1c1ccccc1C(F)(F)F)c1ccccc1Cl` (stereo in doubt) [Preparation Example 4, cis-2-chloro-N-{2-[2-(trifluoromethyl)phenyl]cyclobutyl}benzamide], the chromatographic logP was 3.3.

The data set is the same for the next values; noted with them: reversed phase HPLC columns, pH 2.7, HPLC on reversed phase columns, method [b] (pH 2.7); read-out: logP.
With `O=C(N[C@@H]1CCC[C@@H]1c1ccc(C(F)(F)F)cc1)c1nccnc1Cl` [Example 748], the chromatographic logP was found to be 3.2.
For the compound `O=C(N[C@@H]1CC[C@@H]1c1c(Cl)cccc1Cl)c1ccccc1Br` [Example 735], the chromatographic logP was determined as 3.6.
Still for that read-out and setting: next, `O=C(N[C@@H]1C[C@]1(F)c1ccc(Cl)cc1)c1ccccc1Cl` [Example 752]: 2.78.
